Values quoted from earlier work in patent US20110086355A1, “BRCA1 mRNA EXPRESSION LEVELS PREDICT SURVIVAL IN BREAST CANCER PATIENTS TREATED WITH NEOADJUVANT CHEMOTHERAPY” (PANGAEA BIOTECH, S.A., priority 2008, published 2011).

Legend:
[1] = system: HCC1937 breast cancer cell line; conditions: wild-type BRCA1 reconstituted vs BRCA1-negative HCC1937
[2] = system: SKOV-3 human ovarian cancer cell line
breast cancer cell line = conditions: BRCA1 mRNA determined by RT-QPCR
[3] = system: Mouse models carrying conditional disruption of BRCA1

SMILES: N.N.[Cl][Pt][Cl] [cisplatin]
- increase in resistance [1]: 20 fold
- resistance after upregulation of BRCA1 expression [2]: increased cisplatin resistance
- change of sensitivity after decreased BRCA1 mRNA expression (breast cancer cell line): greater sensitivity

SMILES: COc1cc([C@@H]2c3cc4c(cc3[C@@H](O[C@@H]3O[C@@H]5CO[C@@H](C)O[C@H]5[C@H](O)[C@H]3O)[C@H]3COC(=O)[C@H]23)OCO4)cc(OC)c1O [etoposide]
- change of sensitivity after decreased BRCA1 mRNA expression (breast cancer cell line): greater sensitivity

SMILES: CC/C(=C(\c1ccccc1)c1ccc(OCCN(C)C)cc1)c1ccccc1 [tamoxifen]
- sensitivity of BRCA1-disrupted mouse models [3]: resistant

SMILES: CC[C@]1(O)C[C@H]2CN(CCc3c([nH]c4ccccc34)[C@@](C(=O)OC)(c3cc4c(cc3OC)N(C=O)[C@H]3[C@@](O)(C(=O)OC)[C@H](OC(C)=O)[C@]5(CC)C=CCN6CC[C@]43[C@@H]65)C2)C1 [vincristine]
- change of sensitivity after decreased BRCA1 mRNA expression (breast cancer cell line): greater resistance

SMILES: COc1cccc2c1C(=O)c1c(O)c3c(c(O)c1C2=O)C[C@@](O)(C(=O)CO)C[C@@H]3O[C@H]1C[C@H](N)[C@H](O)[C@H](C)O1 [doxorubicin]
- sensitivity of BRCA1-disrupted mouse models [3]: highly sensitive

SMILES: CC(=O)O[C@H]1C(=O)[C@@]2(C)[C@H]([C@H](OC(=O)c3ccccc3)[C@]3(O)C[C@H](OC(=O)[C@H](O)[C@@H](NC(=O)c4ccccc4)c4ccccc4)C(C)=C1C3(C)C)[C@]1(OC(C)=O)CO[C@@H]1C[C@@H]2O [paclitaxel]
- change of sensitivity after decreased BRCA1 mRNA expression (breast cancer cell line): greater resistance
